Experiments:
[1] = system: HUVECs; assay: Transwell cell migration assay; assay type: cell-based, human; conditions: 0.5 μM, 16 h, FIG. 3A
Protocol: For evaluating cell migration, the HUVECs (1×10^5 cells/well) suspended within serum-free culture medium were seeded on inner surface of the upper chamber (ThinCerts™ Cell Culture Inserts with 8 μm pore size; #662638; Greiner Bio-One Inc., Monroe, N.C., USA) placed in the lower chamber (wells of a 24-well plate). For examining the cell invasion, the HUVECs were pre-mixed with equal volume of thawed Matrigel and rapidly seeded on the upper chamber. After 2 h for cell attachment, K20E at different concentrations (0.5, 1, and 2 μM) were added in the upper and the lower chambers, while 5% FBS as a chemoattractant was added in the lower chamber to facilitate cell migration or invasion. After 16 h incubation, the culture medium (or Matrigel) was removed clearly from inside the upper chamber, and the migrated or invasion cells attached on the outer surface of the upper chamber were fixed with 10% formaldehyde for 10 min at RT. The fixed cells were subsequently counterstained with hematoxylin. Relative cell number of each groups was counted from five random regions by light microscopy using a 40-fold magnification. The cell number of the control group (treated with 5% FBS alone) was defined as 100%.

[2] = system: LLC1 lung cancer cells; assay: Cell viability assay (MTT assay), growth inhibition of LLC1 cells; assay type: cell-based, mouse; conditions: normal culture condition
Protocol: Human umbilical vein endothelial cells (HUVECs; #8000) were purchased from the ScienCell Research Laboratories (San Diego, Calif., USA). The cells were seeded on gelatin-coated culture dishes and grown in the commercial endothelial cell medium (#1001; ScienCell) containing 5% fetal bovine serum (FBS; #0025; ScienCell), 30 μg/mL endothelial cell growth supplements (ECGS; #1052; ScienCell), 100 units/mL penicillin G, and 100 μg/mL streptomycin sulfates (#0503; ScienCell). Cells at passage 3-6 were used for experiments. Mouse Lewis lung carcinoma cell line 1 (LLC1; #60050) was bought from the Food Industry Research and Development Institute (Hsinchu, Taiwan) and cultured in Gibco® Dulbecco's modified Eagle's medium (#12800-017; Invitrogen, Carlsbad, Calif., USA) supplemented with 10% FBS (HyClone, Logan, Utah, USA), 4 mM L-glutamine, 1.5 g/L sodium bicarbonate, 100 units/mL penicillin G, and 100 μg/mL streptomycin. All cells were incubated in a humidified 5% CO2 atmosphere at 37° C. and culture media was changed every 2˜3 days.
The experiments were performed according to our previous study with minor modifications (Pan et al., 2010). […] Absorbance values at 570 nm were determined for each well using 650 nm as the reference wavelength. The absorbance of the control group (treated with 5% or 10% FBS alone) was defined as 100%.

[3] = system: p53-p21 pathway; assay: p53 and p21 protein levels in HUVECs (immunoblot); assay type: cell-based, human; conditions: FIG. 7
Protocol: (§1) The experiments were carried out as described previously (Pan et al., 2010). Briefly, the cells (5×10^5 cells/well) seeded on the 6-well plates and incubated with different concentrations (0.5, 1, and 2 μM) of K20E under normal culture condition for 15 min or 24 h to detect the expression levels of the phosphorylated proteins and the total proteins, respectively. The treated cells were harvested and lysed by using PROPREP® protein extraction solution (#17081; iNtRON Biotechnology, Gyeonggi-Do, South Korea). The cell lysates were further centrifuged at 13000×g at 4° C. for 10 min to collect the supernatants for sodium dodecyl sulfate-polyacrylamide gel electrophoresis (SDS-PAGE). Protein concentration was measured by the Bio-Rad protein assay kit (Bio-Rad, Hercules, Calif., USA) according to the manufacturer's instructions. Aliquots containing 30 μg protein were electrophoresed using 10% slab SDS-PAGE gels and then transferred to PVDF membranes (Immobilon-P™; Millipore, Bedford, Mass., USA). […] The luminescence signal was acquired by Fujifilm LAS-4000 system (San Leandro, Calif., USA) and quantified by using MultiGauge software (v3.0; Fujifilm). […] The relative protein expression was calculated according to the values of the control group (treated with 5% or 10% FBS alone) as 100%.

[4] = system: VEGFR-2; assay: VEGFR-2 expression in HUVECs (immunoblot); assay type: cell-based, human; conditions: FIG. 6A
Protocol: as §1

[5] = system: gelatinases (MMP-2 and MMP-9); assay: Gelatinase protein (immunoblot) and activity (gelatin zymography) in HUVECs; assay type: cell-based, human; conditions: FIG. 6D
Protocol: as §1, with “instructions.” for “instructions. Aliquots containing 30 μg protein were electrophoresed using 10% slab SDS-PAGE gels and then transferred to PVDF membranes (Immobilon-P™; Millipore, Bedford, Mass., USA).”
The experiments were carried out according to the procedure of previous study with minor modification (Chen et al., 2012). […] The intensity of the digested bands was quantified by using Multi Gauge software. […]

[6] = system: angiogenesis in chick chorioallantoic membrane; assay: Chick chorioallantoic membrane (CAM) assay; conditions: ex vivo supplementary data, dose-dependent

COC(=O)/C=C/c1cc(OC(C)=O)c2c(c1)[C@H](C(=O)OC)[C@@H](c1ccc(OC(C)=O)c(OC(C)=O)c1)O2 [K20E]
5% FBS-induced migration of the HUVECs [1]: markedly abolished
GI50 ([2]; Mus musculus, LLC1 lung cancer cells, data not shown, read-out: GI50 value on LLC1 (concentration that causes 50% growth inhibition)): ~79.4 µM
cell viability of the LLC1 lung cancer cells [2]: significantly inhibit
expression level of p21 protein [3]: dose-dependently increased
expression level of p53 protein [3]: dose-dependently increased
expression level of intracellular and surface VEGFR-2 [4]: markedly down-regulated
activity levels of gelatinases (MMP-2 and MMP-9) ([5]; gelatin zymography): evidently decreased
protein levels of gelatinases (MMP-2 and MMP-9) ([5]; immunoblot): evidently decreased
angiogenesis in CAM assay [6]: effectively reduce the angiogenesis
